These results are taken from US20110045459A1, “Molecular determinants of EGFR kinase inhibitor response in glioblastoma” (priority 2005, published 2011).

The subject of the test is U87MG glioblastoma cells. Nature of the test: Relative sensitivity to erlotinib of U87MG lines expressing PTEN, EGFR, EGFRvIII (crystal violet). The class given is cell-based. Conditions: erlotinib 0-10 μM, 10-14 days, U87-PTEN. As to the method:
FIG. 3. […] 1000 cells/well of each cell line was seeded into 96-well plates in 8 replicates. […] Experiments were repeated 3 times in 8 replicates for each condition.
Following retroviral transduction we selected the following stable cell lines: U87-PTEN, U87-EGFR, U87-PTEN-EGFR, U87-EGFRvIII and U87-PTEN-EGFRvIII.
Functional analysis of effect of EGFR, EGFRvIII and PTEN coexpression: Human EGFR and EGFRvIII cDNAs were retrovirally introduced into U87MG and U87MG-PTEN over-expressing cells and selected for antibiotic resistance. Multiple stable clones were analyzed for the expression of PTEN, EGFR or EGFRvIII by immunoblot. […] The background reading of the wells containing medium alone was subtracted from experimental wells.

Each structure is given as a SMILES string. “Also recorded” adds a separate entry of the source.

Consider `C#Cc1cccc(Nc2ncnc3cc(OCCOC)c(OCCOC)cc23)c1` [Erlotinib], for which the “sensitization of glioblastoma cells to erlotinib” value is “EGFRvIII and PTEN co-expression sensitizes glioblastoma cells to erlotinib; also recorded: EGFRvIII sensitized glioblastoma cells to erlotinib, but only when PTEN was co-expressed”.
